Measurements as given in the supplement of paper PMC10307832.

Key:
Assay in all cases: relative viability (nuclei count vs DMSO), 5 days (fraction); higher = more cells survive
[1] = compound: CC(C)N(CCCNC(=O)Nc1ccc(C(C)(C)C)cc1)C[C@H]1O[C@@H](n2ccc3c(N)ncnc32)[C@H](O)[C@@H]1O + CCNC(=O)c1noc(-c2cc(C(C)C)c(O)cc2O)c1-c1ccc(CN2CCOCC2)cc1 [Luminespib] (partner 0.01 µM)
Procedure, shortened: (§1)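 Relative viability is defined as nuclei in treated wells over nuclei in vehicle wells. Duplicate plates were run and medians reported. Lung cancer cell lines in 1536-well plates were dosed by pin tool one day after seeding, with one drug or with a fixed anchor-drug dose plus five library-drug doses (not always all listed) in √10 steps, and nuclei were counted after 5 days.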

[2] = compound: CC(C)N(CCCNC(=O)Nc1ccc(C(C)(C)C)cc1)C[C@H]1O[C@@H](n2ccc3c(N)ncnc32)[C@H](O)[C@@H]1O + CC1(C)CCC(c2ccc(Cl)cc2)=C(CN2CCN(c3ccc(C(=O)NS(=O)(=O)c4ccc(N[C@H](CCN5CCOCC5)CSc5ccccc5)c(S(=O)(=O)C(F)(F)F)c4)cc3)CC2)C1 [Navitoclax] (partner 0.5 µM)
Procedure, shortened: as §1

[3] = compound: CC(C)N(CCCNC(=O)Nc1ccc(C(C)(C)C)cc1)C[C@H]1O[C@@H](n2ccc3c(N)ncnc32)[C@H](O)[C@@H]1O + Cc1nc(Nc2ncc(C(=O)Nc3c(C)cccc3Cl)s2)cc(N2CCN(CCO)CC2)n1 [Dasatinib] (partner 0.075 µM)
Procedure, shortened: as §1

[4] = compound: CC(C)N(CCCNC(=O)Nc1ccc(C(C)(C)C)cc1)C[C@H]1O[C@@H](n2ccc3c(N)ncnc32)[C@H](O)[C@@H]1O + NC(=O)Nc1cc(-c2cccc(F)c2)sc1C(=O)N[C@H]1CCCNC1 [AZD7762] (partner 0.2 µM)
Procedure, shortened: as §1

Cell Line | relative viability ([1]; first compound 0.08 µM) | relative viability ([1]; first compound 0.253 µM) | relative viability ([1]; first compound 0.8 µM) | relative viability ([1]; first compound 2.53 µM) | relative viability ([1]; first compound 8 µM) | relative viability ([2]; first compound 0.08 µM) | relative viability ([2]; first compound 0.253 µM) | relative viability ([2]; first compound 0.8 µM) | relative viability ([2]; first compound 2.53 µM) | relative viability ([2]; first compound 8 µM) | relative viability ([3]; first compound 0.08 µM) | relative viability ([3]; first compound 0.253 µM) | relative viability ([3]; first compound 0.8 µM) | relative viability ([3]; first compound 2.53 µM) | relative viability ([3]; first compound 8 µM) | relative viability ([4]; first compound 0.08 µM) | relative viability ([4]; first compound 0.253 µM) | relative viability ([4]; first compound 0.8 µM) | relative viability ([4]; first compound 2.53 µM) | relative viability ([4]; first compound 8 µM)
NCI-H1651 | 0.805 | 0.903 | 0.785 | 0.765 | 0.722 | 1.01 | 1.04 | 1.09 | 1.05 | 0.995 | 0.317 | 0.373 | 0.291 | 0.386 | 0.517 | 0.545 | 0.562 | 0.468 | 0.46 | 0.457
NCI-H1666 | 0.963 | 0.987 | 1.07 | 0.999 | 0.941 | 0.946 | 0.912 | 1.03 | 0.934 | 0.953 | 0.874 | 0.796 | 0.799 | 0.813 | 0.705 | 0.924 | 0.898 | 0.758 | 0.844 | 0.773
NCI-H1734 | 0.218 | 0.19 | 0.209 | 0.188 | 0.23 | 0.784 | 0.86 | 0.71 | 0.856 | 0.752 | 0.411 | 0.415 | 0.456 | 0.485 | 0.508 | 0.546 | 0.441 | 0.634 | 0.565 | 0.466
NCI-H1755 | 0.553 | 0.53 | 0.367 | 0.43 | 0.349 | 0.986 | 0.99 | 0.923 | 0.958 | 0.914 | 0.373 | 0.44 | 0.418 | 0.428 | 0.429 | 0.473 | 0.401 | 0.44 | 0.444 | 0.426
NCI-H1792 | 0.47 | – | 0.394 | 0.446 | 0.439 | 0.634 | 0.589 | 0.623 | 0.591 | 0.571 | 0.768 | 0.785 | 0.871 | 0.71 | 0.783 | 0.68 | – | 0.46 | 0.569 | 0.601
NCI-H1793 | 0.18 | – | 0.292 | 0.171 | 0.203 | 0.487 | – | 0.393 | 0.505 | 0.357 | 0.368 | – | 0.355 | 0.36 | 0.38 | 0.614 | – | 0.386 | 0.437 | 0.426
NCI-H1915 | 0.757 | 0.819 | 0.676 | 0.789 | 0.77 | 0.782 | 0.778 | 0.781 | 0.768 | 0.697 | 0.311 | 0.34 | 0.311 | 0.323 | 0.314 | 0.674 | 0.726 | 0.607 | 0.668 | 0.56
NCI-H1944 | 0.716 | 0.683 | 0.819 | 0.709 | 0.766 | 0.982 | 0.983 | 0.988 | 1.05 | 1.02 | 0.197 | 0.197 | 0.257 | 0.243 | 0.222 | 0.678 | 0.415 | 0.537 | 0.559 | 0.575
NCI-H1975 | 0.214 | 0.154 | – | 0.213 | 0.192 | 0.978 | 1.18 | 1.17 | 0.923 | 0.835 | 0.382 | 0.337 | 0.241 | 0.341 | 0.288 | 0.701 | 0.686 | – | 0.642 | 0.53
NCI-H1993 | 0.707 | – | – | 0.927 | 0.84 | 0.944 | 1.03 | 0.872 | 0.807 | 0.959 | 0.476 | – | – | 0.768 | 0.718 | 0.659 | – | 0.941 | 0.777 | 0.673
NCI-H2085 | 0.434 | 0.506 | 0.441 | 0.414 | 0.389 | 1.11 | 1.11 | 1.18 | 1.33 | 1.15 | 0.248 | 0.218 | 0.288 | 0.232 | 0.26 | 0.979 | 0.766 | 0.921 | 1.08 | 1
NCI-H2087 | 0.211 | 0.198 | 0.276 | 0.16 | 0.151 | 1.04 | 1.11 | 0.896 | 1.14 | 0.989 | 0.876 | 1.03 | 0.77 | 1.04 | 0.948 | 1.31 | 1.26 | 1.51 | 1.38 | 1.29
NCI-H2126 | 0.847 | 0.814 | 0.941 | 0.88 | 0.925 | 0.887 | 0.825 | 0.851 | 0.848 | 0.776 | 0.616 | 0.582 | 0.603 | 0.601 | 0.554 | 0.913 | 1.01 | 0.956 | 0.988 | 0.965
NCI-H2170 | 0.793 | 0.762 | 0.718 | 0.661 | 0.629 | 0.605 | 0.637 | 0.594 | 0.567 | 0.544 | 0.429 | 0.478 | 0.55 | 0.591 | 0.562 | 0.934 | 0.79 | 0.66 | 0.836 | 0.857
NCI-H2347 | 0.578 | 0.321 | 0.245 | 0.371 | 0.555 | 0.86 | 0.684 | 0.608 | 0.771 | 0.71 | 0.305 | 0.305 | 0.326 | 0.296 | 0.293 | 0.795 | 0.815 | 0.605 | 0.803 | 0.746
NCI-H2405 | 0.691 | 0.61 | 0.722 | 0.78 | 0.74 | 0.957 | – | 0.991 | 1 | 1.05 | 0.193 | 0.199 | 0.242 | 0.2 | 0.241 | 0.742 | 0.817 | 0.689 | 0.844 | 0.699
